Article PMC3175016 (Journal of applied toxicology : JAT, 2011)
Where two headings read alike, the source gives them in different places. Marks after values point to notes of the source that are not given here.

How the values were obtained:
male Fischer 344 rats [1] = settings: ref Patel et al., 2008, cited from earlier work
male Fischer 344 rats [2] = experiment: Liver histology; type: in vivo; settings: 24 h
male Fischer 344 rats [3] = experiment: Kidney weight 24 h after a single i.p. dose; type: in vivo; settings: i.p. in corn oil, mean ± SE, N = 3–4
male Fischer 344 rats [4] = experiment: Clinical observation 24 h after dosing; type: in vivo, rat; settings: 0.6 mmol/kg i.p., 24 h after dosing (sluggish movements and low body temperatures)
male Fischer 344 rats [5] = experiment: Liver weight 24 h after a single i.p. dose; type: in vivo; settings: i.p. in corn oil, mean ± SE, N = 3–4
male Fischer 344 rats [6] = experiment: Serum alanine aminotransferase; type: in vivo; settings: 24 h
male Fischer 344 rats [7] = experiment: Six-hour urine protein content after a single i.p. dose; type: in vivo; settings: i.p. in corn oil, mean ± SE, N = 3–4
male Fischer 344 rats [8] = experiment: Kidney histology; type: in vivo; settings: all doses evaluated, i.p., 24 h, vs corn oil
male Fischer 344 rats [9] = experiment: Urine volume after a single i.p. dose; type: in vivo; settings: i.p. in corn oil, mean ± SE, N = 3–4
male Fischer 344 rats [10] = experiment: Blood urea nitrogen; type: in vivo; settings: for Blood urea nitrogen: i.p. in corn oil, 24 h, mean ± SE, N = 3–4
[11] = dose 0.2 (head mg/kg; text mmol/kg)
[12] = dose 0.4 (head mg/kg; text mmol/kg)
[13] = dose 0.6 (head mg/kg; text mmol/kg)
[14] = dose 1.0 (head mg/kg; text mmol/kg)

Compound	Kidney weight (male Fischer 344 rats [3]; [11])	Kidney weight (male Fischer 344 rats [3]; [12])	Kidney weight (male Fischer 344 rats [3]; [13])	Liver weight (male Fischer 344 rats [5]; [11])	Liver weight (male Fischer 344 rats [5]; [12])	Liver weight (male Fischer 344 rats [5]; [13])	ALT elevation compared to corn oil controls (male Fischer 344 rats [6]; 0.6 mmol/kg i.p.)	Six-hour urine protein content (male Fischer 344 rats [7]; [11])	Six-hour urine protein content (male Fischer 344 rats [7]; [12])	Six-hour urine protein content (male Fischer 344 rats [7]; [13])	Kidney morphology (male Fischer 344 rats [8])	Twenty-four-hour urine volume (male Fischer 344 rats [9]; [11])	Twenty-four-hour urine volume (male Fischer 344 rats [9]; [12])	Twenty-four-hour urine volume (male Fischer 344 rats [9]; [13])	Blood urea nitrogen (male Fischer 344 rats [10]; [11])	Blood urea nitrogen (male Fischer 344 rats [10]; [12])	Blood urea nitrogen (male Fischer 344 rats [10]; [13])	further results
O=C1CSC(=O)N1c1cc(Cl)cc(Cl)c1 [DCPT, 3-(3,5-dichlorophenyl)-2,4-thiazolidinedione]	–	–	–	–	–	–	–	–	–	–	–	–	–	–	–	–	–	ALT values (male Fischer 344 rats [1]; 0.2 mmol/kg): 26.7 ± 6.6 SF units/ml; ALT values (male Fischer 344 rats [1]; 0.4 mmol/kg): 231.5 ± 50.0 SF units/ml; ALT values (male Fischer 344 rats [1]; 0.6 mmol/kg): 281.7 ± 103.0 SF units/ml; ALT values (male Fischer 344 rats [1]; 1.0 mmol/kg): 506.9 ± 99.4 SF units/ml
O=C(O)CSC(=O)Nc1cc(Cl)cc(Cl)c1 [DCTA, [[[(3,5-dichlorophenyl)amino]carbonyl]thio]acetic acid]	0.40 ± 0.01^b g/ 100% BW	0.43 ± 0.01 *,^b,^c g/ 100% BW	0.45 ± 0.01 *,^c g/ 100% BW	3.58 ± 0.21^b g/100% BW	3.62 ± 0.05^b g/100% BW	3.46 ± 0.17^b g/100% BW	about 2 fold	2.9 ± 0.9^b mg	2.5 ± 0.4^b mg	2.5 ± 1.1^b mg	did not exhibit obvious changes in kidney morphology	12.5 ± 3.8^b ml	13.1 ± 2.4^b ml	9.5 ± 5.0^b ml	21.0 ± 1.0^b mg/dl	62.2 ± 11.2*,^c mg/dl	67.8 ± 17.9*,^c mg/dl	Liver morphology (male Fischer 344 rats [2]; 0.6 mmol/kg i.p.): nuclear condensation was apparent in some hepatocytes; Liver morphology (male Fischer 344 rats [2]; 0.2 and 0.4 mmol/kg i.p.): did not produce any significant changes; Clinical appearance (male Fischer 344 rats [4]): appeared to be moribund; Change in serum ALT levels (male Fischer 344 rats [6]; 0.2 and 0.4 mmol/kg i.p.): no changes were noted; Increase in serum BUN concentrations (male Fischer 344 rats [10]; 0.4 and 0.6 mmol/kg, compared to corn oil and the 0.2 mmol/kg dose): about 3 fold
O=C1CSC(=O)N1c1ccccc1 [PTZD, 3-phenyl-2,4-thiazolidinedione]	0.36 ± 0.01^d g/ 100% BW	0.40 ± 0.00*,^e g/ 100% BW	0.41 ± 0.01*,^e g/ 100% BW	3.69 ± 0.25^e g/100% BW	3.68 ± 0.18^e g/100% BW	4.08 ± 0.08^e g/100% BW	~26 fold	2.1 ± 0.5^d mg	2.1 ± 0.2^d mg	3.4 ± 0.9^d mg	dilation of distal tubules and collecting tubules	6.1 ± 1.7^d ml	11.5 ± 3.2^d ml	12.5 ± 2.4^d ml	24.8 ± 1.9^d mg/dl	24.1 ± 0.9^d mg/dl	28.6 ± 2.0*,^d mg/dl	Liver morphology (male Fischer 344 rats [2]; 0.2 mmol/kg i.p.): did not show any signs of hepatic damage; Liver morphology (male Fischer 344 rats [2]; 0.4 mmol/kg i.p.): some damage with granular and irregularly stained cytoplasm and indistinct nuclei; Liver morphology (male Fischer 344 rats [2]; 1.0 mmol/kg i.p.): larger necrotic lesions were present and an acute inflammatory response occurred; Kidney weight (male Fischer 344 rats [3]; [14]): 0.47 ± 0.01 *,^f g/ 100% BW; Liver weight (male Fischer 344 rats [5]; [14]): 4.24 ± 0.06*,^e g/100% BW; Change in serum ALT levels (male Fischer 344 rats [6]; 0.2 mmol/kg i.p., vs corn oil): did not produce a significant change; ALT elevation compared to corn oil controls (male Fischer 344 rats [6]; 0.4 mmol/kg i.p.): approximately 7 fold; serum alanine aminotransferase (ALT) activity (male Fischer 344 rats [6]; 1.0 mmol/kg i.p. in corn oil, corn oil controls 36.0 ± 11.3): 1196.2 ± 133.6 Sigma-Frankel units/ml; ALT elevation compared to corn oil controls (male Fischer 344 rats [6]; 1.0 mmol/kg i.p.): ~33 fold; Six-hour urine protein content (male Fischer 344 rats [7]; [14]): 2.3 ± 0.6^d mg; Twenty-four-hour urine volume (male Fischer 344 rats [9]; [14]): 22.6 ± 0.4*,^e ml; Blood urea nitrogen (male Fischer 344 rats [10]; [14]): 31.3 ± 2.4*,^d mg/dl
